# Biological target: Prothrombin (Homo sapiens) (UniProt P00734)
# Assay: Relative prothrombin time was determined as the activity of the test ODN (oligodeoxynucleotide) relative to that of GS-522
row,Relative PT,SMILES
1,0.8,Cc1cn([C@H]2C[C@H](OP(=O)(O)OC[C@H]3O[C@@H](n4cnc5c(=O)nc(N)[nH]c54)C[C@@H]3OP(=O)(O)OC[C@H]3O[C@@H](n4cnc5c(=O)[nH]c(=N)[nH]c54)C[C@@H]3OP(=O)(O)OC[C@H]3O[C@@H](n4cc(C)c(=O)[nH]c4=O)C[C@@H]3OP(=O)(O)OC[C@H]3O[C@@H](n4cnc5c(=O)[nH]c(=N)[nH]c54)C[C@@H]3OP(=O)(O)OC[C@H]3O[C@@H](n4cc(C)c(=O)[nH]c4=O)C[C@@H]3OP(=O)(O)OC[C@H]3O[C@@H](n4cnc5c(=O)nc(N)[nH]c54)C[C@@H]3OCOC[C@H]3O[C@@H](n4cnc5c(=O)[nH]c(=N)[nH]c54)C[C@@H]3OP(=O)(O)OC[C@H]3O[C@@H](n4cc(C)c(=O)[nH]c4=O)C[C@@H]3OP(=O)(O)OC[C@H]3O[C@@H](n4cc(C)c(=O)[nH]c4=O)C[C@@H]3OP(=O)(O)OC[C@H]3O[C@@H](n4cnc5c(=O)[nH]c(=N)[nH]c54)C[C@@H]3OCOC[C@H]3O[C@@H](n4cnc5c(=O)nc(N)[nH]c54)C[C@@H]3O)[C@@H](COP(=O)(O)O[C@H]3C[C@H](n4cc(C)c(=O)[nH]c4=O)O[C@@H]3COP(=O)(O)O[C@H]3C[C@H](n4cnc5c(=O)nc(N)[nH]c54)O[C@@H]3COP(=O)(O)O[C@H]3C[C@H](n4cnc5c(=O)[nH]c(=N)[nH]c54)O[C@@H]3COP(=O)(O)O)O2)c(=O)[nH]c1=O
2,0.7,Cc1cn([C@H]2C[C@H](OCOC[C@H]3O[C@@H](n4cnc5c(=O)nc(N)[nH]c54)C[C@@H]3OP(=O)(O)OC[C@H]3O[C@@H](n4cnc5c(=O)[nH]c(=N)[nH]c54)C[C@@H]3OP(=O)(O)OC[C@H]3O[C@@H](n4cc(C)c(=O)[nH]c4=O)C[C@@H]3OP(=O)(O)OC[C@H]3O[C@@H](n4cc(C)c(=O)[nH]c4=O)C[C@@H]3O[PH](O)(O)OC[C@H]3O[C@@H](n4cnc5c(=O)[nH]c(=N)[nH]c54)C[C@@H]3OP(=O)(O)OC[C@H]3O[C@@H](n4cnc5c(=O)nc(N)[nH]c54)C[C@@H]3O)[C@@H](COP(=O)(O)O[C@H]3C[C@H](n4cnc5c(=O)[nH]c(=N)[nH]c54)O[C@@H]3COCO[C@H]3C[C@H](n4cc(C)c(=O)[nH]c4=O)O[C@@H]3COP(=O)(O)O[C@H]3C[C@H](n4cnc5c(=O)[nH]c(=N)[nH]c54)O[C@@H]3COP(=O)(O)O[C@H]3C[C@H](n4cnc5c(=O)nc(N)[nH]c54)O[C@@H]3COP(=O)(O)O[C@H]3C[C@H](n4cc(C)c(=O)[nH]c4=O)O[C@@H]3COP(=O)(O)O[C@H]3C[C@H](n4cc(C)c(=O)[nH]c4=O)O[C@@H]3COP(=O)(O)O[C@H]3C[C@H](n4cnc5c(=O)nc(N)[nH]c54)O[C@@H]3COP(=O)(O)O[C@H]3C[C@H](n4cnc5c(=O)nc(N)[nH]c54)O[C@@H]3COP(=O)(O)O)O2)c(=O)[nH]c1=O
3,0.6,Cc1cn([C@H]2C[C@H](OP(=O)(O)OC[C@H]3O[C@@H](n4cnc5c(=O)nc(N)[nH]c54)C[C@@H]3OCOC[C@H]3O[C@@H](n4cnc5c(=O)[nH]c(=N)[nH]c54)C[C@@H]3OP(=O)(O)OC[C@H]3O[C@@H](n4cc(C)c(=O)[nH]c4=O)C[C@@H]3OP(=O)(O)OC[C@H]3O[C@@H](n4cnc5c(=O)[nH]c(=N)[nH]c54)C[C@@H]3OP(=O)(O)OC[C@H]3O[C@@H](n4cc(C)c(=O)[nH]c4=O)C[C@@H]3OP(=O)(O)OC[C@H]3O[C@@H](n4cnc5c(=O)nc(N)[nH]c54)C[C@@H]3OCOC[C@H]3O[C@@H](n4cnc5c(=O)[nH]c(=N)[nH]c54)C[C@@H]3OP(=O)(O)OC[C@H]3O[C@@H](n4cc(C)c(=O)[nH]c4=O)C[C@@H]3OP(=O)(O)OC[C@H]3O[C@@H](n4cc(C)c(=O)[nH]c4=O)C[C@@H]3OP(=O)(O)OC[C@H]3O[C@@H](n4cnc5c(=O)[nH]c(=N)[nH]c54)C[C@@H]3OP(=O)(O)OC[C@H]3O[C@@H](n4cnc5c(=O)nc(N)[nH]c54)C[C@@H]3O)[C@@H](COP(=O)(O)O[C@H]3C[C@H](n4cc(C)c(=O)[nH]c4=O)O[C@@H]3COP(=O)(O)O[C@H]3C[C@H](n4cnc5c(=O)nc(N)[nH]c54)O[C@@H]3COP(=O)(O)O[C@H]3C[C@H](n4cnc5c(=O)[nH]c(=N)[nH]c54)O[C@@H]3COP(=O)(O)O)O2)c(=O)[nH]c1=O
4,0.4,Cc1cn([C@H]2C[C@H](OCOC[C@H]3O[C@@H](n4cnc5c(=O)[nH]c(=N)[nH]c54)C[C@@H]3OP(=O)(O)OC[C@H]3O[C@@H](n4cnc5c(=O)nc(N)[nH]c54)C[C@@H]3O)[C@@H](COP(=O)(O)O[C@H]3C[C@H](n4cc(C)c(=O)[nH]c4=O)O[C@@H]3COP(=O)(O)O[C@H]3C[C@H](n4cnc5c(=O)[nH]c(=N)[nH]c54)O[C@@H]3COP(=O)(O)O[C@H]3C[C@H](n4cnc5c(=O)nc(N)[nH]c54)O[C@@H]3COCO[C@H]3C[C@H](n4cc(C)c(=O)[nH]c4=O)O[C@@H]3COP(=O)(O)O[C@H]3C[C@H](n4cnc5c(=O)[nH]c(=N)[nH]c54)O[C@@H]3COP(=O)(O)O[C@H]3C[C@H](n4cc(C)c(=O)[nH]c4=O)O[C@@H]3COP(=O)(O)O[C@H]3C[C@H](n4cnc5c(=O)[nH]c(=N)[nH]c54)O[C@@H]3COP(=O)(O)O[C@H]3C[C@H](n4cnc5c(=O)nc(N)[nH]c54)O[C@@H]3COP(=O)(O)O[C@H]3C[C@H](n4cc(C)c(=O)[nH]c4=O)O[C@@H]3COP(=O)(O)O[C@H]3C[C@H](n4cc(C)c(=O)[nH]c4=O)O[C@@H]3COP(=O)(O)O[C@H]3C[C@H](n4cnc5c(=O)nc(N)[nH]c54)O[C@@H]3COP(=O)(O)O[C@H]3C[C@H](n4cnc5c(=O)[nH]c(=N)[nH]c54)O[C@@H]3COP(=O)(O)O)O2)c(=O)[nH]c1=O
5,0.8,Cc1cn([C@H]2C[C@H](OCOC[C@H]3O[C@@H](n4cc(C)c(=O)[nH]c4=O)C[C@@H]3OP(=O)(O)OC[C@H]3O[C@@H](n4cnc5c(=O)nc(N)[nH]c54)C[C@@H]3OP(=O)(O)OC[C@H]3O[C@@H](n4cnc5c(=O)[nH]c(=N)[nH]c54)C[C@@H]3OCOC[C@H]3O[C@@H](n4cc(C)c(=O)[nH]c4=O)C[C@@H]3OP(=O)(O)OC[C@H]3O[C@@H](n4cnc5c(=O)nc(N)[nH]c54)C[C@@H]3OCOC[C@H]3O[C@@H](n4cc(C)c(=O)[nH]c4=O)C[C@@H]3OP(=O)(O)OC[C@H]3O[C@@H](n4cnc5c(=O)nc(N)[nH]c54)C[C@@H]3OP(=O)(O)OC[C@H]3O[C@@H](n4cnc5c(=O)[nH]c(=N)[nH]c54)C[C@@H]3OP(=O)(O)OC[C@H]3O[C@@H](n4cc(C)c(=O)[nH]c4=O)C[C@@H]3OCOC[C@H]3O[C@@H](n4cc(C)c(=O)[nH]c4=O)C[C@@H]3OP(=O)(O)OC[C@H]3O[C@@H](n4cnc5c(=O)[nH]c(=N)[nH]c54)C[C@@H]3OP(=O)(O)OC[C@H]3O[C@@H](n4cnc5c(=O)nc(N)[nH]c54)C[C@@H]3O)[C@@H](COP(=O)(O)O[C@H]3C[C@H](n4cnc5c(=O)[nH]c(=N)[nH]c54)O[C@@H]3COP(=O)(O)O[C@H]3C[C@H](n4cnc5c(=O)nc(N)[nH]c54)O[C@@H]3COP(=O)(O)O)O2)c(=O)[nH]c1=O
6,0.9,Cc1cn([C@H]2C[C@H](OP(=O)(O)OC[C@H]3O[C@@H](n4cnc5c(=O)nc(N)[nH]c54)C[C@@H]3OP(=O)(O)OC[C@H]3O[C@@H](n4cnc5c(=O)[nH]c(=N)[nH]c54)C[C@@H]3OP(=O)(O)OC[C@H]3O[C@@H](n4cc(C)c(=O)[nH]c4=O)C[C@@H]3OP(=O)(O)OC[C@H]3O[C@@H](n4cnc5c(=O)nc(N)[nH]c54)C[C@@H]3OP(=O)(O)OC[C@H]3O[C@@H](n4cc(C)c(=O)[nH]c4=O)C[C@@H]3OP(=O)(O)OC[C@H]3O[C@@H](n4cnc5c(=O)nc(N)[nH]c54)C[C@@H]3OP(=O)(O)OC[C@H]3O[C@@H](n4cnc5c(=O)[nH]c(=N)[nH]c54)C[C@@H]3OP(=O)(O)OC[C@H]3O[C@@H](n4cc(C)c(=O)[nH]c4=O)C[C@@H]3OP(=O)(O)OC[C@H]3O[C@@H](n4cc(C)c(=O)[nH]c4=O)C[C@@H]3OP(=O)(O)OC[C@H]3O[C@@H](n4cnc5c(=O)[nH]c(=N)[nH]c54)C[C@@H]3OP(=O)(O)OC[C@H]3O[C@@H](n4cnc5c(=O)nc(N)[nH]c54)C[C@@H]3O)[C@@H](COP(=O)(O)O[C@H]3C[C@H](n4cc(C)c(=O)[nH]c4=O)O[C@@H]3COP(=O)(O)O[C@H]3C[C@H](n4cnc5c(=O)[nH]c(=N)[nH]c54)O[C@@H]3COCO[C@H]3C[C@H](n4cnc5c(=O)nc(N)[nH]c54)O[C@@H]3COP(=O)(O)O)O2)c(=O)[nH]c1=O
7,0.8,Cc1cn([C@H]2C[C@H](OP(=O)(O)OC[C@H]3O[C@@H](n4cnc5c(=O)nc(N)[nH]c54)C[C@@H]3OP(=O)(O)OC[C@H]3O[C@@H](n4cnc5c(=O)[nH]c(=N)[nH]c54)C[C@@H]3OP(=O)(O)OC[C@H]3O[C@@H](n4cc(C)c(=O)[nH]c4=O)C[C@@H]3OP(=O)(O)OC[C@H]3O[C@@H](n4cnc5c(=O)nc(N)[nH]c54)C[C@@H]3OP(=O)(O)OC[C@H]3O[C@@H](n4cc(C)c(=O)[nH]c4=O)C[C@@H]3OP(=O)(O)OC[C@H]3O[C@@H](n4cnc5c(=O)nc(N)[nH]c54)C[C@@H]3OP(=O)(O)OC[C@H]3O[C@@H](n4cnc5c(=O)[nH]c(=N)[nH]c54)C[C@@H]3OP(=O)(O)OC[C@H]3O[C@@H](n4cc(C)c(=O)[nH]c4=O)C[C@@H]3OP(=O)(O)OC[C@H]3O[C@@H](n4cc(C)c(=O)[nH]c4=O)C[C@@H]3OP(=O)(O)OC[C@H]3O[C@@H](n4cnc5c(=O)[nH]c(=N)[nH]c54)C[C@@H]3OCOC[C@H]3O[C@@H](n4cnc5c(=O)nc(N)[nH]c54)C[C@@H]3O)[C@@H](COP(=O)(O)O[C@H]3C[C@H](n4cc(C)c(=O)[nH]c4=O)O[C@@H]3COP(=O)(O)O[C@H]3C[C@H](n4cnc5c(=O)[nH]c(=N)[nH]c54)O[C@@H]3COP(=O)(O)O[C@H]3C[C@H](n4cnc5c(=O)nc(N)[nH]c54)O[C@@H]3COP(=O)(O)O)O2)c(=O)[nH]c1=O

# From ChEMBL document CHEMBL1131152, “In vitro and in vivo activities of oligodeoxynucleotide-based thrombin inhibitors containing neutral formacetal linkages” (J Med Chem, 1998)
